Test results published in patent US12583861B2, “Derivatives of imidazo[4,5-d]pyridazine, their preparation and their therapeutic application” (SANOFI, priority 2021, dated 2026).
Counter-ions that a name gives are not always drawn.

How the values were obtained:
human TLR7 = molecular target: T1, human TLR7 (Homo sapiens, UniProt Q9NYK1); assay: HEK-Blue hTLR7 reporter cell assay (SEAP, NF-kB/AP-1) for stimulation of human TLR7; assay type: cell-based; details: HEK-Blue hTLR7 cells; for EC50: 24 h incubation, SEAP readout, read-out: TLR7_EC50; for activation at 20 µM: 24 h, at 20000 nM
T1 construct: host or cells: HEK293 (HEK-Blue hTLR7)
T1 sequence (Q9NYK1 27-1049): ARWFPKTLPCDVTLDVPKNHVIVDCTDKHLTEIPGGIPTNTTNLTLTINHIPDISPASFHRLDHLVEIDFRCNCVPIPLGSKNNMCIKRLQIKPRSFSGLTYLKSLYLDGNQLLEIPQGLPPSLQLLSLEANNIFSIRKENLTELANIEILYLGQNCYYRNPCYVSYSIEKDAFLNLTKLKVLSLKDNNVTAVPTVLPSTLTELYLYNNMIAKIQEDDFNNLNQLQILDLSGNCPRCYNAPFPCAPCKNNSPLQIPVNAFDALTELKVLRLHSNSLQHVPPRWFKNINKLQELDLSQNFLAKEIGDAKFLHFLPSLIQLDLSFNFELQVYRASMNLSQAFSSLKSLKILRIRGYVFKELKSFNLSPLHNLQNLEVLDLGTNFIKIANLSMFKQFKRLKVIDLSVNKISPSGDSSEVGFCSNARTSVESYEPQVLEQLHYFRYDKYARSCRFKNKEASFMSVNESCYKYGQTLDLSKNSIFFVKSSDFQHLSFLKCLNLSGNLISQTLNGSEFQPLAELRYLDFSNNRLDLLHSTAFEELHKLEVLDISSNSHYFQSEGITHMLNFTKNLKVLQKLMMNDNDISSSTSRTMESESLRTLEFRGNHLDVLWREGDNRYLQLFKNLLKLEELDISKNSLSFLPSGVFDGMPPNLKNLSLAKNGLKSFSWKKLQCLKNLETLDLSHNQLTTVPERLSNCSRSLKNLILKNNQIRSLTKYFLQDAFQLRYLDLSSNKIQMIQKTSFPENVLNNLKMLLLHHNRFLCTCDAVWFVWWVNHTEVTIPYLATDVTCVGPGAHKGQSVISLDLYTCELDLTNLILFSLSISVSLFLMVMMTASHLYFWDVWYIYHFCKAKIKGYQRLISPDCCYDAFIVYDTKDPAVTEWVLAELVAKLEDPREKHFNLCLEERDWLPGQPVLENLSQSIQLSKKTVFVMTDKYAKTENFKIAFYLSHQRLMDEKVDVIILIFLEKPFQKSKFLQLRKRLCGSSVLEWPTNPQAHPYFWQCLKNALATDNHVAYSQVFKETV
Procedure, shortened: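 Activity expressed as EC50 for half-maximal SEAP induction. Compounds, serially diluted 3-fold from 20 to 0.01 μM, were incubated 24 h at 37 °C, 5% CO2 with HEK-Blue hTLR7 reporter cells (3.10E4/well, plated 18–24 h earlier); supernatant developed with QUANTI-Blue.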

human TLR8 = molecular target: T2, human TLR8 (Homo sapiens, UniProt Q9NR97); assay: HEK-Blue hTLR8 reporter cell assay (SEAP, NF-kB/AP-1) for stimulation of human TLR8; assay type: cell-based; details: HEK-Blue hTLR8 cells; for EC50: 24 h incubation, SEAP readout, read-out: TLR8_EC50; for activation at 20 µM: 24 h, at 20000 nM
T2 construct: host or cells: HEK293 (HEK-Blue hTLR8)
T2 sequence (Q9NR97 27-1041): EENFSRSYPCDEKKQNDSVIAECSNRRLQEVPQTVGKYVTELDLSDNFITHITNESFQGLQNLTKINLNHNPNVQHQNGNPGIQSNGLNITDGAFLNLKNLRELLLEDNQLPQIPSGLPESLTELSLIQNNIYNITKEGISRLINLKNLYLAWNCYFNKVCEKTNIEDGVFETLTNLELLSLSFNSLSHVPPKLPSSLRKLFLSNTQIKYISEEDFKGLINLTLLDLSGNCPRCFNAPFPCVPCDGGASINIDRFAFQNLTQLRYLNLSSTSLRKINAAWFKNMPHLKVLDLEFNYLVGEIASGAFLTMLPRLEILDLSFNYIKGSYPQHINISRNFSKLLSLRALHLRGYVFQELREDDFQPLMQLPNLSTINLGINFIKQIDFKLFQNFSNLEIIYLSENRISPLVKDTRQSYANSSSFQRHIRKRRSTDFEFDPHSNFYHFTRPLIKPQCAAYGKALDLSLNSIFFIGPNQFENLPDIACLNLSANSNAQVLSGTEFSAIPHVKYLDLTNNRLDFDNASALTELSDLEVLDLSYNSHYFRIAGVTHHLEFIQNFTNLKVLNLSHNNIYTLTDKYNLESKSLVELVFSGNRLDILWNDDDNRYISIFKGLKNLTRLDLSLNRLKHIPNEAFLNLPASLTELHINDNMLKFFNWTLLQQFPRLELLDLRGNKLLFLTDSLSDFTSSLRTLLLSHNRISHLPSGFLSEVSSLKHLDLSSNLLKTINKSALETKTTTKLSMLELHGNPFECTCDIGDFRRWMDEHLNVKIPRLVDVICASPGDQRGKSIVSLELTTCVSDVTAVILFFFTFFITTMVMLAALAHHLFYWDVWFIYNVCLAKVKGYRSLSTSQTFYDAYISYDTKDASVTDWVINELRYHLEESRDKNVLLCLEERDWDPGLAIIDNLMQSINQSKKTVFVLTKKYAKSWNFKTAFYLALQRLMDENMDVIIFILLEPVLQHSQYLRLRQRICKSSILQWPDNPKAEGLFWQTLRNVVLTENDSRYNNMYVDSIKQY
Procedure, shortened: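 Stimulation is quantified as secreted alkaline phosphatase in supernatant using QUANTI-Blue™ substrate. Reporter HEK293 line co-transfected with hTLR8 and SEAP under an IFN-β minimal promoter with five NF-κB/AP-1 sites; 3.10E4 cells/well, 18 to 24 h pre-culture at 37° C. before compounds.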

SMILES | EC50 (human TLR7) [µM] | EC50 (human TLR8) [µM] | activation at 20 µM (human TLR7) [%] | activation at 20 µM (human TLR8) [%]
CCCCc1nc2c(N)nnc(C3=CCOC3)c2n1Cc1ccc(OC)cc1 [Compound 73, 2-butyl-7-(2,5-dihydrofuran-3-yl)-1-(4-methoxybenzyl)-1H-imidazo[4,5-d]pyridazin-4-amine] | 10.1 | > 20 | – | –
CCCCc1nc2c(N)nnc(OC(C)C)c2n1Cc1cccnc1 [Compound 74, 2-butyl-7-isopropoxy-1-(pyridin-3-ylmethyl)-1H-imidazo[4,5-d]pyridazin-4-amine] | 0.586 | 17.9 | – | –
CCCCc1nc2c(N)nnc(OC(C)C)c2n1Cc1ccncc1 [Compound 76, 2-butyl-7-isopropoxy-1-(pyridin-4-ylmethyl)-1H-imidazo[4,5-d]pyridazin-4-amine 2,2,2-trifluoroacetate] | 1.35 | > 20 | – | –
CCCCc1nc2c(N)nnc(OC(C)C)c2n1CCCCCN [Compound 77, 1-(5-aminopentyl)-2-butyl-7-isopropoxy-1H-imidazo[4,5-d]pyridazin-4-amine] | 0.39 | > 20 | – | –
CCCCc1nc2c(N)nnc(OC(C)C)c2n1CCC1CCNCC1 [Compound 78, 2-butyl-7-isopropoxy-1-(2-(piperidin-4-yl)ethyl)-1H-imidazo[4,5-d]pyridazin-4-amine] | 7.74 | > 20 | – | –
CCCCc1nc2c(N)nnc(OC(C)C)c2n1CCN1CCNCC1 [Compound 79, 2-butyl-7-isopropoxy-1-(2-(piperazin-1-yl)ethyl)-1H-imidazo[4,5-d]pyridazin-4-amine] | 9.71 | > 20 | – | –
CCCCc1nc2c(N)nnc(OC(C)C)c2n1Cc1ccccc1 [Compound 80, 1-benzyl-2-butyl-7-isopropoxy-1H-imidazo[4,5-d]pyridazin-4-amine hydrochloride] | 0.169 | > 20 | – | –
CCCCc1nc2c(N)nnc(OC(C)C)c2n1CC1CCCCC1 [Compound 81, 2-butyl-1-(cyclohexylmethyl)-7-isopropoxy-1H-imidazo[4,5-d]pyridazin-4-amine hydrochloride] | 0.117 | > 20 | – | –
CCCCc1nc2c(N)nnc(OC(C)C)c2n1Cc1ccc(CNC2CCOCC2)cc1 [Compound 82, 2-butyl-7-isopropoxy-1-(4-(((tetrahydro-2H-pyran-4-yl)amino)methyl)benzyl)-1H-imidazo[4,5-d]pyridazin-4-amine hydrochloride] | 0.013 | 0.303 | – | –
CCCCc1nc2c(N)nnc(OC(C)C)c2n1Cc1ccc(CNC(C)C)cc1 [Compound 83, 2-butyl-7-isopropoxy-1-(4-((isopropylamino)methyl)benzyl)-1H-imidazo[4,5-d]pyridazin-4-amine dihydrochloride] | 0.008 | 0.637 | – | –
CCCCCCC(=O)NCc1ccc(Cn2c(CCCC)nc3c(N)nnc(OC(C)C)c32)cc1 [Compound 84, N-(4-((4-amino-2-butyl-7-isopropoxy-1H-imidazo[4,5-d]pyridazin-1-yl)methyl)benzyl)heptanamide] | 0.263 | 1.81 | – | –
CCCCc1nc2c(N)nnc(N3CCC(c4ccc(CO)cc4)C3)c2n1C (stereo not drawn) [Compound 85, (4-(1-(4-amino-2-butyl-1-methyl-1H-imidazo[4,5-d]pyridazin-7-yl)pyrrolidin-3-yl)phenyl)methanol hydrochloride] | 0.606 | 3.1 | – | –
CCCCc1nc2c(N)nnc(OC(C)C)c2n1C [Compound 86, 2-butyl-7-isopropoxy-1-methyl-1H-imidazo[4,5-d]pyridazin-4-amine] | 4.4 | 6.96 | – | –
CCCCc1nc2c(N)nnc(NCc3ccc(CN)cc3)c2n1C [Compound 87, N7-(4-(aminomethyl)benzyl)-2-butyl-1-methyl-1H-imidazo[4,5-d]pyridazine-4,7-diamine] | 8.52 | > 20 | – | –
CCCCc1nc2c(N)nnc(NC(C)C)c2n1C [Compound 88, 2-butyl-N7-isopropyl-1-methyl-1H-imidazo[4,5-d]pyridazine-4,7-diamine] | 2.98 | 13.6 | – | –
CCCCc1nc2c(N)nnc(N(C)Cc3ccccc3)c2n1C [Compound 90, N7-benzyl-2-butyl-N7,1-dimethyl-1H-imidazo[4,5-d]pyridazine-4,7-diamine] | 10.6 | 12.7 | – | –
CCCCc1nc2c(N)nnc(NCc3ccc(CN4CCN(C)CC4)cc3)c2n1C [Compound 91, 2-butyl-1-methyl-N7-(4-((4-methylpiperazin-1-yl)methyl)benzyl)-1H-imidazo[4,5-d]pyridazine-4,7-diamine] | – | – | 45 | 10
CCCCc1nc2c(N)nnc(-c3ccccc3)c2n1Cc1ccc(OC)cc1 [Compound 92, 2-butyl-1-(4-methoxybenzyl)-7-phenyl-1H-imidazo[4,5-d]pyridazin-4-amine] | 7.97 | – | – | 15
CCCCc1nc2c(N)nnc(O)c2n1Cc1ccc(OC)cc1 [Compound 93, 4-amino-2-butyl-1-(4-methoxybenzyl)-1H-imidazo[4,5-d]pyridazin-7-ol] | > 20 | – | – | 17
CCCCc1nc2c(N)nnc(NCCCc3ccco3)c2n1Cc1ccc(OC)cc1 [Compound 94, 2-butyl-N7-(3-(furan-2-yl)propyl)-1-(4-methoxybenzyl)-1H-imidazo[4,5-d]pyridazine-4,7-diamine] | 0.226 | – | – | 11
CCCCc1nc2c(N)nncc2n1Cc1ccc(OC)cc1 [Compound 95, 2-butyl-1-(4-methoxybenzyl)-1H-imidazo[4,5-d]pyridazin-4-amine] | – | – | 15 | 20.5
CCCCc1nc2c(N)nnc(-c3cc[nH]n3)c2n1Cc1ccc(OC)cc1 [Compound 96, 2-butyl-1-(4-methoxybenzyl)-7-(1H-pyrazol-3-yl)-1H-imidazo[4,5-d]pyridazin-4-amine] | > 20 | – | – | 22.7
CCCCc1nc2c(N)nnc(-c3cnn(C)c3)c2n1Cc1ccc(OC)cc1 [Compound 97, 2-butyl-1-(4-methoxybenzyl)-7-(1-methyl-1H-pyrazol-4-yl)-1H-imidazo[4,5-d]pyridazin-4-amine] | – | > 20 | 13 | –
CCCCc1nc2c(N)nnc(NC(C)C)c2[nH]1 [Compound 98, 2-butyl-N7-isopropyl-1H-imidazo[4,5-d]pyridazine-4,7-diamine] | – | – | 8 | 6
